Test results from patent US12545637B2, “Extrahepatic targeted cationic lipid compound with high efficiency and low toxicity and its composition” (BEIJING YOUCARE KECHUANG PHARMACEUTICAL TECHNOLOGY CO., LTD., priority 2023, dated 2026).

Assays:
[1] = system: 293T cells; test: Fluorescent detection of Fluc-mRNA (cell transfection efficiency of LNP formulations); type: cell-based; settings: for Relative light unit (RLU): LNP with 0.3 μg Fluc-mRNA, 96-well plate, 24 hours
Protocol: (§1) Seeding plate: The cells in the culture dish were digested and counted. Cells were spread in a 96-well plate at 10,000 cells per well and in a 12-well plate at 150,000 cells per well. Cells were cultured overnight until the cells adhered to the wall.
The corresponding reagents were added according to the instructions of the Gaussia Luciferase Assay Kit, and the fluorescence expression intensity of each well was detected by an IVIS fluorescence detection system.

[2] = system: female BALB/C mice; test: Distribution of liposomes in mice (protein expression in liver, spleen, lung, heart and kidney); type: in vivo
Protocol: (§2) The LNP formulation (prepared according to Example 4) containing […] Fluc-mRNA was injected intramuscularly into female BALB/C mice aged 4-6 weeks and weighed 17-19 g, and the mice were intraperitoneally injected with fluorescent imaging substrate at specific time points after administration (6h, 24 h, 48h and 7d), where the mice were allowed to free move for 5 minutes, and then the average radiation intensity (corresponding to fluorescence expression intensity) of the protein expression of the mRNA carried by the LNP in the mice was detected by the IVIS Spectrum small animal in vivo imaging system.
Current mRNA vaccines usually express proteins in muscle.

[3] = Detection of encapsulation efficiency, drug loading concentration and total RNA concentration (RiboGreen); type: physicochemical; settings: LNP formulation prepared from the cationic lipid
Excerpt: Encapsulation efficiency is a key quality attribute of liposomes, which refers to the percentage of drug content encapsulated in the lipid bimolecular layer accounting for the total drug dose and can reflect the degree of drug encapsulation in liposomes. The Chinese Pharmacopoeia stipulates that the encapsulation efficiency should generally not be less than 80%.
The drug loading amount is the ratio of the amount of drug in the liposome to the total amount of drug and carrier in the liposome. The drug loading amount directly affects the clinical application dose of the drug. […] The drug loading concentration is proportional to the drug loading amount, and the relative proportion of the drug loading concentrations can represent the relative proportion of the drug loading amounts. The relative ratio of the total RNA concentrations may represent the relative ratio of the amounts of mRNA carried by the LNP formulations.
1×TE buffer, 0.1% Triton X-100 buffer, RiboGreen reagent (1: 200) and mRNA standard stock solution were prepared.
An appropriate amount of the sample was added to an appropriate amount of 1×TE buffer, and the mixture was diluted to obtain a solution containing approximately […] sample per 1 mL. Then the sample was added to a 96-well plate, and 50 μL of the diluted test sample or the mRNA standard stock solution was added to each well, then 1×TE buffer and 0.1% Triton X-100 buffer were added. The sample was incubated at 37° C. for 10 minutes, and 100 μL RiboGreen reagent (1:200) was added to each well of the test sample in the 96-well plate. The sample was centrifugated, and the data were read using a microplate reader, and processed.

[4] = Particle size and polydispersity index (PDI) of lipid nanoparticles by dynamic light scattering; type: physicochemical; settings: for PDI: LNP formulation of the cationic lipid, 25° C.; for Particle size: LNP formulation of the cationic lipid/DSPC/cholesterol/DMG-PEG2000 49:10:39.5:1.5, 25° C.
Protocol: The particle size and polydispersity index (PDI) were determined by dynamic light scattering using Malvern laser particle size analyzer.
10 μL of the liposome solution was weighed, diluted to 1 mL with RNase-free deionized water, and added to the sample pool. Each sample was measured in triplicate. The measurement conditions were: […] scattering angle, and 25° C.

[5] = system: female BALB/C mice; test: In vivo imaging in mice of Fluc-mRNA LNP formulations (mRNA expression and duration); settings: Fluc-mRNA LNP intramuscular; for average radiation intensity, 6 h: 6 h after administration; for average radiation intensity, 24 h: 24 h after administration; for average radiation intensity, 48 h: 48 h after administration; for average radiation intensity, 7 d: 7 d after administration
Protocol: as §2

[6] = system: 293T cells; test: Cell survival rate assay (CCK-8); type: cell-based; settings: LNP with 1.5 μg Fluc-mRNA, 24 hours, CCK-8
Protocol: Cell recovery and passage: 293T cells were recovered, cultured in a culture dish, and passaged to the required number of cells.
as §1
An LNP formulation containing 1.5 μg of Fluc-mRNA (prepared according to example 4, the carrier components of the LNP formulation were cationic lipid, neutral lipid, structured lipid and polymer-conjugated lipid at a molar ratio of 49:10:39.5:1.5, wherein the cationic lipid was listed in Table 1) and the formulation of Lipofectamine 3000 were added to the cell culture medium of a 96-well plate, and further cultivated for 24 hours. 10 μL of CCK-8 solution was then added to each well, and the culture plate was incubated in an incubator for 1 hour. The absorbance at 450 nm was measured by a microplate reader.

[7] = system: 293T cells; test: Fluorescent detection of Fluc-mRNA (cell transfection efficiency of LNP formulations); type: cell-based

Row | Compound | Relative light unit (RLU) [1] [RLU] | protein expression in the liver ([2]; mouse, in vivo) | Drug loading concentration [3] [µg/mL] | Encapsulation efficiency [3] [%] | Total RNA concentration [3] [µg/mL] | PDI [4] [%] | Particle size [4] [nm] | average radiation intensity, 6 h [5] | average radiation intensity, 24 h [5] | average radiation intensity, 48 h [5] | average radiation intensity, 7 d [5] | Cell survival rate [6] [%] | protein expression in the spleen ([2]; mouse, in vivo) | further results
1 | CCCCCCCCC(CCCCCC)C(=O)OCCCCCCN(CCCCO)CCCCCCOC(=O)C(CCCCCC)CCCCCCCC (stereo not shown) [ALC-0315, reference compound] | 2189470 | had protein expression in the liver | 26.88 | 63.3 | 37.86 | 18.2 | 205 | 841020 | 189740 | 40125 | 7014 | 47.21 | – | –
2 | CCCCCCCCC(CCCCCCCC)OC(=O)CCCCCCCN(CCO)CCCCCCCC(=O)OCCC(CCCCCC)CCCCCC [Compound 21, reference compound] | 1511024 | had protein expression in the liver | – | – | – | – | – | 600500 | 111040 | 31540 | 6378 | 67.84 | – | –
3 | CCCCCCCCCCCCC(O)CN(C)CCCCCC(=O)OCC(CCCCCC)CCCCCCCC (stereo not shown) [HHMA, reference compound] | 2078940 | had protein expression in the liver | 32.65 | 60.2 | 36.44 | 16.6 | 144 | 661080 | 120010 | 33346 | 5958 | 64.27 | – | –
4 | CCCCCCCCCCCOC(=O)CCCCCN(CCO)CCCCCCCC(=O)OC(CCCCCCCC)CCCCCCCC [SM-102, reference compound] | 1704121 | had protein expression in the liver | 26.53 | 62.9 | 36.04 | 22.3 | 154 | 691480 | 123380 | 32871 | 6723 | 67.90 | had protein expression in the spleen | –
5 | CCCCCCCCCCOC(=O)CCCCCN(CCO)CCN(CCO)CCCCCC(=O)OCCC(CCCCCC)CCCCCC [YK-411] | 7976 | had no protein expression in the liver | 36.72 | 86.3 | 42.57 | 5.2 | 150 | 5850 | 2022 | 975 | 480 | 16.33 | – | –
6 | CCCCCCCCCCOC(=O)CCCCCN(CCO)CCCN(CCO)CCCCCC(=O)OCCC(CCCCCC)CCCCCC [YK-417] | 117287 | – | 25.02 | 74.8 | 33.46 | 17.7 | 128 | 60480 | 19987 | 7045 | 2284 | 21.34 | – | –
7 | CCCCCCCCCCOC(=O)CCCN(CCO)CCCN(CCO)CCCCCCOC(=O)CC(CCCCCC)CCCCCC [YK-418, 6-((3-((4-(decyloxy)-4-oxobutyl)(2-hydroxyethyl)amino)propyl)(2-hydroxyethyl)amino)hexyl 3-hexylnonanoate] | 111251 | had no protein expression in the liver | 24.96 | 75.6 | 33.01 | 17.2 | 149 | – | – | – | – | 21.05 | – | –
8 | CCCCCCCCC(CCCCCCCC)OC(=O)CCCCCN(CCO)CCCN(CCO)CCCCCC(=O)OC(CCCCCCCC)CCCCCCCC [YK-419, di(heptadecan-9-yl) 6,6′-(propane-1,3-diyl-bis((2-hydroxyethyl)azanediyl))dihexanoate] | 3167322 | had no protein expression in the liver | 30.40 | 88.3 | 34.44 | 11.2 | 169 | – | – | – | – | 38.92 | had protein expression in the spleen | –
9 | CCCCCCCCC(CCCCCCCC)COC(=O)CCCCCN(CCCO)CCCCN(CCCO)CCCCCC(=O)OCC(CCCCCCCC)CCCCCCCC [YK-424, bis(2-octyldecyl) 6,6′-(butane-1,4-diylbis((3-hydroxypropyl)azanediyl))dihexanoate] | 2883414 | had no protein expression in the liver | 32.84 | 92.8 | 35.39 | 16.1 | 170 | – | – | – | – | 27.93 | had protein expression in the spleen | –
10 | bis(3-hexylnonyl) 8,8′-((2-hydroxyethyl) azanediyl)dioctanoate [Compound 23, reference compound] | 1402597 | – | 20.01 | 56.2 | 31.05 | 12.1 | 147 | 581400 | 100970 | 32917 | 6105 | 69.11 | – | Multiple of YK-401 [1]: 4.00; protein expression in the liver ([2]; mice, intramuscular Fluc-mRNA LNP, at 6h (FIG. 14)): had protein expression in the liver; Multiple of YK-402 ([7]; RLU of YK-402 divided by RLU of the lipid named in the row): 3.60; Multiple of YK-403 ([7]; RLU of YK-403 divided by RLU of the lipid named in the row): 3.74; Multiple of YK-407 ([7]; RLU of YK-407 divided by RLU of the lipid named in the row): 14.53; Multiple of YK-422 ([7]; RLU of YK-422 divided by RLU of the lipid named in the row): 4.59; Multiple of YK-423 ([7]; RLU of YK-423 divided by RLU of the lipid named in the row): 4.44; Ratio relative to SM-102 (RLU, times that of SM-102) ([7]; RLU of the lipid divided by RLU of SM-102): 0.82
